In article PMC10331583, “Control of fibrosis with enhanced safety via asymmetric inhibition of prolyl‐tRNA synthetase 1” (EMBO Molecular Medicine, 2023):
“And” between values parts separate entries of the source, which are not always exact repeats. Identical values can stand only once.

Experiments:
[1] = Cytotoxicity assay in cells stably expressing EV; details: human, Cytotoxicity, % of control, average, WI-26 VA4 EV
[2] = system: WI‐26 VA4 cells stably expressing EV (empty vector); assay: Cytotoxicity assay in cells stably expressing EV; details: WI-26 VA4 EV
[3] = molecular target: T1, PARS1 F1097A/E1123A/R1152L (FA/EA/RL) mutant (Homo sapiens, UniProt P07814, E1123A/F1097A/R1152L); assay: Microscale thermophoresis (MST), PARS1 mutant; format: binding; details: for Fraction bound: single replicates
T1 construct: His‐PARS1 (1001–1,512 aa); made in house; host or cells: Escherichia coli
T1 sequence (P07814 1001-1512 F1097A/E1123A/R1152L): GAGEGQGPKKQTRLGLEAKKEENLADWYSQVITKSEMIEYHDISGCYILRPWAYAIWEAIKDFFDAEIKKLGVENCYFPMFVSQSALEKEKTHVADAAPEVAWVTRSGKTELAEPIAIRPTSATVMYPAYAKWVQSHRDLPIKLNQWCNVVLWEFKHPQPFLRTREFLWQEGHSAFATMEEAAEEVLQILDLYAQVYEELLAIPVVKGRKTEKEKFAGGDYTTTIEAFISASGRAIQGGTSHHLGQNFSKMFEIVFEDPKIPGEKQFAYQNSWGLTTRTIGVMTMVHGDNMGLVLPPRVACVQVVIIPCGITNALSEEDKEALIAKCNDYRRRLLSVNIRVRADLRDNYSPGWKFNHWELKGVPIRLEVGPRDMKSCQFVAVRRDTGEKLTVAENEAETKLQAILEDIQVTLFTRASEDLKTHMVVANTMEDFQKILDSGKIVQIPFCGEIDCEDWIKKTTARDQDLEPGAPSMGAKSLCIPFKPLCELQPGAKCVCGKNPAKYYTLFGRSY

O[C@H]1CCCN[C@@H]1CCCn1cnc2c(Cl)c(Cl)ccc21 [DWN12088]
activity at 72 h, 0.01 µM ([1]; 10 nM): 131% | activity at 72 h, 0.03 µM ([1]; 30 nM): 120% | activity at 72 h, 0.1 µM ([1]; 100 nM): 127% | activity at 72 h, 0.3 µM ([1]; 300 nM): 125% | activity at 72 h, 1 µM ([1]; 1000 nM): 118% | activity at 72 h, 3 µM ([1]; 3000 nM): 105% | activity at 72 h, 10 µM ([1]; 10000 nM): 108% | activity at 72 h, 30 µM ([1]; 30000 nM): 42.2% | activity at 72 h, 100 µM ([1]; 100000 nM): 25.1% | activity at 72 h, 300 µM ([1]; 300000 nM): 1.78% | activity at 72 h, 1000 µM ([1]; 1000000 nM): -0.23% | Cytotoxicity, % of control (single replicates, Experiment #1-#4) ([2]; 10 nM, 0.01 µM): 181.59 % of control and 174.53 % of control and 155.63 % of control and 131.53 % of control and 90.90 % of control and 98.37 % of control and 100.27 % of control and 114.43 % of control | Cytotoxicity, % of control (single replicates, Experiment #1-#4) ([2]; 30 nM, 0.03 µM): 144.67 % of control and 129.26 % of control and 139.92 % of control and 145.06 % of control and 96.12 % of control and 96.09 % of control and 105.17 % of control and 102.77 % of control | Cytotoxicity, % of control (single replicates, Experiment #1-#4) ([2]; 100 nM, 0.1 µM): 147.51 % of control and 118.70 % of control and 139.92 % of control and 137.75 % of control and 115.49 % of control and 112.19 % of control and 121.53 % of control and 122.89 % of control | Cytotoxicity, % of control (single replicates, Experiment #1-#4) ([2]; 300 nM, 0.3 µM): 145.14 % of control and 129.72 % of control and 157.05 % of control and 115.90 % of control and 103.62 % of control and 109.27 % of control and 123.14 % of control and 114.81 % of control | Cytotoxicity, % of control (single replicates, Experiment #1-#4) ([2]; 1000 nM, 1 µM): 147.27 % of control and 102.27 % of control and 132.28 % of control and 145.77 % of control and 98.60 % of control and 107.79 % of control and 107.19 % of control and 105.61 % of control | Cytotoxicity, % of control (single replicates, Experiment #1-#4) ([2]; 3000 nM, 3 µM): 108.37 % of control and 94.06 % of control and 109.81 % of control and 125.38 % of control and 98.33 % of control and 90.23 % of control and 106.43 % of control and 103.83 % of control | Cytotoxicity, % of control (single replicates, Experiment #1-#4) ([2]; 10000 nM, 10 µM): 112.55 % of control and 107.77 % of control and 118.32 % of control and 138.37 % of control and 93.86 % of control and 92.69 % of control and 99.78 % of control and 101.69 % of control | Cytotoxicity, % of control (single replicates, Experiment #1-#4) ([2]; 30000 nM, 30 µM): 48.06 % of control and 41.00 % of control and 64.15 % of control and 50.51 % of control and 27.36 % of control and 27.48 % of control and 37.20 % of control and 42.21 % of control | Cytotoxicity, % of control (single replicates, Experiment #1-#4) ([2]; 100000 nM, 100 µM): 28.49 % of control and 29.03 % of control and 30.62 % of control and 22.10 % of control and 18.35 % of control and 21.38 % of control and 22.01 % of control | Cytotoxicity, % of control (single replicates, Experiment #1-#4) ([2]; 300000 nM, 300 µM): 1.70 % of control and 1.82 % of control and 1.26 % of control and 1.75 % of control and 1.60 % of control and 1.89 % of control and 2.00 % of control | Cytotoxicity, % of control (single replicates, Experiment #1-#4) ([2]; 1000000 nM, 1000 µM): 0.17 % of control and -0.17 % of control and 0.30 % of control and -0.30 % of control (2×) and -0.44 % of control (2×) and -0.63 % of control | Cytotoxicity HillSlope (best-fit value) ([2]; log(inhibitor) vs. response, variable slope (four parameters)): -1.361 | Cytotoxicity LogIC50 (best-fit value) ([2]; log(inhibitor) vs. response, variable slope (four parameters), concentration in nM): 4.38 | Fraction bound, average ([3]; Dose 30.5176 nM): -0.2196 | Fraction bound ([3]; Dose 30.5176 nM): -0.0531 and -0.3613 and -0.2444 | Fraction bound, average ([3]; Dose 61.0352 nM): -0.1437 | Fraction bound ([3]; Dose 61.0352 nM): -0.0707 and -0.1506 and -0.2099 | Fraction bound, average ([3]; Dose 122.07 nM): 0.0563 | Fraction bound ([3]; Dose 122.07 nM): 0.1029 and 0.0530 and 0.0131 | Fraction bound, average ([3]; Dose 244.141 nM): 0.2244 | Fraction bound ([3]; Dose 244.141 nM): 0.3322 and 0.1837 and 0.1572 | Fraction bound, average ([3]; Dose 488.281 nM): -0.0768 | Fraction bound ([3]; Dose 488.281 nM): -0.1204 and -0.1742 and 0.0641 | Fraction bound, average ([3]; Dose 976.562 nM): -0.0355 | Fraction bound ([3]; Dose 976.562 nM): -0.2804 and 0.0014 and 0.1724 | Fraction bound, average ([3]; Dose 1953.12 nM): 0.1140 | Fraction bound ([3]; Dose 1953.12 nM): 0.1616 and 0.0279 and 0.1524 | Fraction bound, average ([3]; Dose 3906.25 nM): 0.1368 | Fraction bound ([3]; Dose 3906.25 nM): 8.74e-5 and 0.2618 and 0.1487 | Fraction bound, average ([3]; Dose 7812.5 nM): -0.0582 | Fraction bound ([3]; Dose 7812.5 nM): -0.2477 and -0.0355 and 0.1087 | Fraction bound, average ([3]; Dose 15625 nM): 0.2874 | Fraction bound ([3]; Dose 15625 nM): 0.1991 and 0.1856 and 0.4774 | Fraction bound, average ([3]; Dose 31250 nM): 0.2894 | Fraction bound ([3]; Dose 31250 nM): 0.2431 and 0.4002 and 0.2248 | Fraction bound, average ([3]; Dose 62500 nM): 0.2591 | Fraction bound ([3]; Dose 62500 nM): 0.5108 and 0.3402 and -0.0738 | Fraction bound, average ([3]; Dose 125000 nM): 0.4857 | Fraction bound ([3]; Dose 125000 nM): 0.4645 and 0.6139 and 0.3786 | Fraction bound, average ([3]; Dose 250000 nM): 0.6790 | Fraction bound ([3]; Dose 250000 nM): 0.6147 and 0.6365 and 0.7858 | Fraction bound, average ([3]; Dose 500000 nM): 0.8538 | Fraction bound ([3]; Dose 500000 nM): 0.9212 and 0.7677 and 0.8725 | Fraction bound, average ([3]; Dose 1000000 nM): 0.8907 | Fraction bound ([3]; Dose 1000000 nM): 0.9649 and 0.9924 and 0.7150 | Kd ([3]; Kd (Fit Results), His-PARS1 FA/EA/RL, doses of the sheet in nM): 114000 nM | Kd ([3]; Kd, MT (FA/EA/RL), 5 mM ATP, mean ± SD, unit inferred): 114000 ± 57400 nM
